# Experimental data: article PMC10765884, “MC180295 is a highly potent and selective CDK9 inhibitor with preclinical in vitro and in vivo efficacy in cancer” (Clinical Epigenetics, 2024)
# Where two headings read alike, the source gives them in different places.
# Assays:
# [1] = molecular target: T1, CDK14/cyclin Y (PFTK1) (Homo sapiens, UniProt O94921); test: CDK enzymatic assay; format: biochemical; details: Fig. 1A
# T1 construct: purchased Reaction Biology Corp
# Method: (§1) CDK enzymatic assays were performed by Reaction Biology Corp. (Malvern, PA), using 10 µM ATP for determining MC180295 IC50 values for each CDK family member for which assays were available. Kinase enzymatic assays were also performed by Nanosyn (Santa Clara, CA), using microfluidic technology and MC180295 IC50 curves against 10 CDKs. Selectivity against CDK9 was confirmed for the enantiomers at Reaction Biology Corp. (Malvern, PA).
# [2] = molecular target: T2, CDK16/cyclin Y (PCTAIRE) (Homo sapiens, UniProt Q00536); test: CDK enzymatic assay; format: biochemical; details: Fig. 1A
# T2 construct: purchased Reaction Biology Corp
# T2 sequence (Q00536 whole entry): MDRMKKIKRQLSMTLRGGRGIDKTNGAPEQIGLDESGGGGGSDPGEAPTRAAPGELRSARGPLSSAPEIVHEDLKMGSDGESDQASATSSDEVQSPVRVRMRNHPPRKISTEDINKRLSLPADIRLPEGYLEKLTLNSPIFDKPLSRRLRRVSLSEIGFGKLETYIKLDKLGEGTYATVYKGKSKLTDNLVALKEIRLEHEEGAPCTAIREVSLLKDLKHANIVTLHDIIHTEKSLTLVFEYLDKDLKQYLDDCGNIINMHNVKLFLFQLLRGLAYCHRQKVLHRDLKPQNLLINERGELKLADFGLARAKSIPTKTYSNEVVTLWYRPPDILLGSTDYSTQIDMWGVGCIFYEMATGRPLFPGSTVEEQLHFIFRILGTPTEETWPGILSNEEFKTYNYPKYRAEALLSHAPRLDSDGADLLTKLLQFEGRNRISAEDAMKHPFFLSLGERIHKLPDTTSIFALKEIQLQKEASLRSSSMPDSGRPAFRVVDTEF
# T2 sequence (Q8ND76 whole entry partner): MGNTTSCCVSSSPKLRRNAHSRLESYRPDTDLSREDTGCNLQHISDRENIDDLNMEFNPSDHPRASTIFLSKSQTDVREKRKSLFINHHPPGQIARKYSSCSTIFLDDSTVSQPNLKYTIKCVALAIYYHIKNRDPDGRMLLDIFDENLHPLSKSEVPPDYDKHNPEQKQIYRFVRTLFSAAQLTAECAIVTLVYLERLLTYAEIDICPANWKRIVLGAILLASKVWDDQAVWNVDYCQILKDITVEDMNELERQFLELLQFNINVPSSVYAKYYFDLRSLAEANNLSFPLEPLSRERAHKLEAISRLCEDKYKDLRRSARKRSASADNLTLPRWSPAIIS
# Method: as §1
# [3] = molecular target: T3, CDK17/cyclin Y (PCTK2) (Homo sapiens, UniProt Q00537); test: CDK enzymatic assay; format: biochemical; details: Fig. 1A
# T3 construct: purchased Reaction Biology Corp
# T3 sequence (Q00537 whole entry): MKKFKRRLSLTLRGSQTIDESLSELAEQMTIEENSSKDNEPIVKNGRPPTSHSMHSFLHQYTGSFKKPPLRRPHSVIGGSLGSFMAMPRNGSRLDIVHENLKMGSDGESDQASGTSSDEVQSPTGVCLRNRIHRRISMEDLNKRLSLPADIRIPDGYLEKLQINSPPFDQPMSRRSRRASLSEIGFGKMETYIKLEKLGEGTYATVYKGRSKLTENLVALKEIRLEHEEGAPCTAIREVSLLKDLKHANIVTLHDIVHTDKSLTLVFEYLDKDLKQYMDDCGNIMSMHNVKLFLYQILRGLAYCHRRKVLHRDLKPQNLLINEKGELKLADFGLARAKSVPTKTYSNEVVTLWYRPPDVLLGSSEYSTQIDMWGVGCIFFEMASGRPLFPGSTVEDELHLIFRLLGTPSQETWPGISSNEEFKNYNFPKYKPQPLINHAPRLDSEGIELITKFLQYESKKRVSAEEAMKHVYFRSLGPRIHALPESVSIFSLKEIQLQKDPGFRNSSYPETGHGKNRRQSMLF
# T3 sequence (Q8ND76 whole entry partner): as the sequence (Q8ND76 whole entry partner) above
# Method: as §1
# [4] = molecular target: T4, CDK18/cyclin Y (PCTK3) (Homo sapiens, UniProt Q07002); test: CDK enzymatic assay; format: biochemical; details: Fig. 1A
# T4 construct: purchased Reaction Biology Corp
# T4 sequence (Q07002 whole entry): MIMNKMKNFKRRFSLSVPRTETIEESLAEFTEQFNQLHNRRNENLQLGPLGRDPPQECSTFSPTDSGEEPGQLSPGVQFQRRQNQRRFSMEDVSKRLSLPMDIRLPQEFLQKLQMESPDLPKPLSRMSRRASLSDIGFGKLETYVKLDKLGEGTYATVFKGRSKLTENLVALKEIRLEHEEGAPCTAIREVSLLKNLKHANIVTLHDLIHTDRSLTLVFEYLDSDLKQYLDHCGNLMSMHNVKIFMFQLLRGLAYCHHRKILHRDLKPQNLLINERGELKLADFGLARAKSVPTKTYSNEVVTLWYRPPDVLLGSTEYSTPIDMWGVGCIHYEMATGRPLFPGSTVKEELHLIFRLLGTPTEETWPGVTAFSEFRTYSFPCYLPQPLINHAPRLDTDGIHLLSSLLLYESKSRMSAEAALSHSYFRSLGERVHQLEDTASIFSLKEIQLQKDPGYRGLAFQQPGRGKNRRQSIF
# T4 sequence (Q8ND76 whole entry partner): as the sequence (Q8ND76 whole entry partner) above
# Method: as §1
# [5] = molecular target: T5, CDK19/cyclin C (Homo sapiens, UniProt Q9BWU1); test: CDK enzymatic assay; format: biochemical; details: Fig. 1A
# T5 construct: purchased Reaction Biology Corp
# T5 sequence (Q9BWU1 whole entry): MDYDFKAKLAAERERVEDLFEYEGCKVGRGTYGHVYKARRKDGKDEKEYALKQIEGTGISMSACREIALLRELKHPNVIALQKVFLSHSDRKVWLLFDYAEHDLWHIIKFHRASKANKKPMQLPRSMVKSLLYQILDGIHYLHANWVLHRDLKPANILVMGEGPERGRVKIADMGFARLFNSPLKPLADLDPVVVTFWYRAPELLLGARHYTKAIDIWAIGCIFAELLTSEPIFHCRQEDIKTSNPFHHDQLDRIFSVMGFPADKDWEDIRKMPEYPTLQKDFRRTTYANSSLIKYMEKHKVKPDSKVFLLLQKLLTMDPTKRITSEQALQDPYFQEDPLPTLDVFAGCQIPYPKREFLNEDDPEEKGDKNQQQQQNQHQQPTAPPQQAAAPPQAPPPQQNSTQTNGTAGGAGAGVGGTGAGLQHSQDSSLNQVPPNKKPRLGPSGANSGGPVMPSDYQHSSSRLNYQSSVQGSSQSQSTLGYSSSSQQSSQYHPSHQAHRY
# T5 sequence (P24863 whole entry partner): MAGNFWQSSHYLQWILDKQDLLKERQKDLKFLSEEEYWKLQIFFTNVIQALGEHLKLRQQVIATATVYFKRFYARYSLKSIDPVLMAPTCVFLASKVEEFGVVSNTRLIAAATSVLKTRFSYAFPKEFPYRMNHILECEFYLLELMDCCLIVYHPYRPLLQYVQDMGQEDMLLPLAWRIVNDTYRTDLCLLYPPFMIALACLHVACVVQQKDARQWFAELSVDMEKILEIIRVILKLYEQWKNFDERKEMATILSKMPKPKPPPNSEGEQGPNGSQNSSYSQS
# Method: as §1
# [6] = molecular target: T6, CDK3/cyclin E2 (Homo sapiens, UniProt Q00526); test: CDK enzymatic assay; format: biochemical; details: Fig. 1A
# T6 construct: purchased Reaction Biology Corp
# Method: as §1
# [7] = molecular target: T7, CDK6-Cyclin D3 (Homo sapiens, UniProt Q00534); test: CDK enzymatic assay; format: biochemical; details: Fig. 1A
# T7 construct: purchased Nanosyn
# T7 sequence (Q00534 whole entry): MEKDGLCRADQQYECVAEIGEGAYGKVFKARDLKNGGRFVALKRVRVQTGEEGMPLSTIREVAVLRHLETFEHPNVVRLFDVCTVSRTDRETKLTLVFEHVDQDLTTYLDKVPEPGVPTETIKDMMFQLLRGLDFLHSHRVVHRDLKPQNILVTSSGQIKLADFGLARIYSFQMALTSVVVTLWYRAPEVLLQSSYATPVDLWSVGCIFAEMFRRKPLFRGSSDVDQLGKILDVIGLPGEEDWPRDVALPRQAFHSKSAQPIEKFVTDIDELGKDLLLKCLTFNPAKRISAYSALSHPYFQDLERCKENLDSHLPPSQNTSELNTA
# T7 sequence (P30281 whole entry partner): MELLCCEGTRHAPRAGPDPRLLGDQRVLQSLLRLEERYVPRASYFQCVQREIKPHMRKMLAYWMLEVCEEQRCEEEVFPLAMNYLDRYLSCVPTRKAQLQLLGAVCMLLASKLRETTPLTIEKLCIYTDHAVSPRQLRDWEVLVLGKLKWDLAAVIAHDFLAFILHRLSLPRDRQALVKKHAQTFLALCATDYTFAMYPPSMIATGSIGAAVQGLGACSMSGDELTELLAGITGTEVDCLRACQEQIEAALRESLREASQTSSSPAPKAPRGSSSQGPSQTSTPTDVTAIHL
# Method: as §1
# [8] = molecular target: T8, CDK8/cyclin C (Homo sapiens, UniProt P49336); test: CDK enzymatic assay; format: biochemical; details: Fig. 1A
# T8 construct: purchased Reaction Biology Corp
# T8 sequence (P49336 whole entry): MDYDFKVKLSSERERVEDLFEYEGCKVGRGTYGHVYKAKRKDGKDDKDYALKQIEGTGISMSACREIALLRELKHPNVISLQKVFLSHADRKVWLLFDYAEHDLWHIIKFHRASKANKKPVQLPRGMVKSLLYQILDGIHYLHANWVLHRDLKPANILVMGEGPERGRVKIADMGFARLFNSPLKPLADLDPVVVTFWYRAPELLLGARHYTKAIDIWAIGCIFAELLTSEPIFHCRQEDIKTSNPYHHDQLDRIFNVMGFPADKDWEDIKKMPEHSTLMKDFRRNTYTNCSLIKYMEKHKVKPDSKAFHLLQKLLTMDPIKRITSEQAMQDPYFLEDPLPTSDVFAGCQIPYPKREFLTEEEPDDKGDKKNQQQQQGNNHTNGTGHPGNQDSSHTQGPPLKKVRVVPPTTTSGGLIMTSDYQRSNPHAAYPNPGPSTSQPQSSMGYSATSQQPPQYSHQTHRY
# T8 sequence (P24863 whole entry partner): as the sequence (P24863 whole entry partner) above
# Method: as §1
# [9] = molecular target: T9, CDK9/cyclin K (Homo sapiens, UniProt P50750); test: CDK enzymatic assay; format: biochemical; details: Fig. 1A
# T9 construct: purchased Reaction Biology Corp
# Method: as §1
# [10] = molecular target: CDK9/cyclin T1 (Homo sapiens, UniProt P50750); test: CDK enzymatic assay; format: biochemical; details: Fig. 1A
# Method: as §1
# [11] = molecular target: T10, CDK9/cyclin T2 (Homo sapiens, UniProt P50750); test: CDK enzymatic assay; format: biochemical; details: Fig. 1A
# T10 construct: purchased Reaction Biology Corp
# Method: as §1
# [12] = Pharmacokinetics in mice; format: in vivo; details: mouse, plasma
# Method: Fig. 1 MC180295 enzymatic/growth inhibition and pharmacokinetics. A In vitro activity (IC50 values) of MC180295 against a panel of CDKs. B MC180295 IC50 values against 46 cell lines from 6 different cancer types. C Pharmacokinetic analyses after oral or IV administration of low-dose (1 mg/kg IV or 2.5 mg/kg oral) MC180295 to mice. D Pharmacokinetic analyses after IP administration of 10 mg/kg MC180295 to mice.
# We next studied the pharmacokinetics (PK) of MC180295.
# T1 sequence (O94921 whole entry): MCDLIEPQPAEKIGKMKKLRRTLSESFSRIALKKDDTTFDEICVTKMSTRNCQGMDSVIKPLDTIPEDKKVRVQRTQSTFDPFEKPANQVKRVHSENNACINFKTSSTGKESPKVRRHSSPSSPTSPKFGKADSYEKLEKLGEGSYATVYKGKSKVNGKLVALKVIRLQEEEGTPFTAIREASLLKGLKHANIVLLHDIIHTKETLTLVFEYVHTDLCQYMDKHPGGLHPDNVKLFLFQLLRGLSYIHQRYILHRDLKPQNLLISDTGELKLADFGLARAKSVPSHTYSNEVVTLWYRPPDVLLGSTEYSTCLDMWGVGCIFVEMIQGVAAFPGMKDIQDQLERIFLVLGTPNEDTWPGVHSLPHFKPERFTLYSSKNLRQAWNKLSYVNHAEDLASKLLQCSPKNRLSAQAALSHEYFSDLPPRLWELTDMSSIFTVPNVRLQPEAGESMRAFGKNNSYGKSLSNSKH
# T1 sequence (Q8ND76 whole entry partner): as the sequence (Q8ND76 whole entry partner) above
smiles,measurement,setting,value
Nc1nc(N[C@H]2C[C@@H]3CC[C@H]2C3)sc1C(=O)c1ccccc1[N+](=O)[O-] (relative stereo) [MC180295],IC50,[1],0.528 µM
same,IC50,[2],1.18 µM
same,IC50,[3],0.438 µM
same,IC50,[4],1.06 µM
same,IC50,[5],0.814 µM
same,IC50,[6],0.401 µM
same,IC50,[7],0.712 µM
same,IC50,[8],0.501 µM
same,IC50,[9],0.049 µM
same,IC50,[10],0.012 µM
same,IC50,[11],0.003 µM
same,AUC(0-t),[12]; IP 10 mg/kg,1370 ng·h/mL
same,Cmax,[12]; IP 10 mg/kg,1070 ng/mL
same,Tmax,[12]; IP 10 mg/kg,0.17 h
same,AUC(0-inf),"[12]; IP 10 mg/kg, read-out: AUC 0-inf_obs",3840 ng·h/mL
same,AUC,[12]; IV - 1mg/kg,110 ng·h/mL
same,Cmax,[12]; IV - 1mg/kg,210 ng/mL
same,clearance,[12]; IV - 1mg/kg,3.67 mL/min
same,Vd,"[12]; IV - 1mg/kg, read-out: Vss",0.19 L
same,AUC,[12]; Oral - 2.5mg/kg,71 ng·h/mL
same,Cmax,[12]; Oral - 2.5mg/kg,96 ng/mL
same,Tmax,[12]; Oral - 2.5mg/kg,0.5 h
same,bioavailability,"[12]; Oral - 2.5mg/kg vs IV - 1mg/kg, as fraction",26%
same,half-life,"[12]; ip, 10 mg/kg, IP 10 mg/kg, read-out: T1/2 (converted)",15.8 h
same,half-life,"[12]; ip, 10 mg/kg, IP at 10 mg/kg, read-out: half-life (converted)",15.8 h
same,half-life,"[12]; iv, 1 mg/kg, IV - 1mg/kg, read-out: T1/2 (converted)",0.86 h
same,half-life,"[12]; iv, 1 mg/kg, IV dose of 1 mg/kg, read-out: half-life (converted)",0.86 h
same,bioavailability,[12]; oral dose of 2.5 mg/kg,26%
same,half-life,"[12]; po, 2.5 mg/kg, Oral - 2.5mg/kg, read-out: T1/2 (converted)",1.32 h
same,half-life,"[12]; po, 2.5 mg/kg, oral dose of 2.5 mg/kg, read-out: half-life (converted)",1.3 h
